Laboratory results: ChEMBL document CHEMBL1201862, “PubChem BioAssay data set” (2004)
The source made the active and inactive calls.

How the values were obtained:
[1] = HeLa cell cytotoxicity, dose response, cytotoxicity control for MgcRacGAP inhibitor project (AID 624300); type: functional
[2] = biological target: T1, Rac GTPase-activating protein 1 (Homo sapiens, UniProt Q9H0H5); assay: MgcRacGAP GTPase-activating activity inhibitors, confirmation, biochemical, ADP Hunter fluorescence, primary and confirmatory (AID 624330); type: functional
T1 sequence (Q9H0H5 whole entry): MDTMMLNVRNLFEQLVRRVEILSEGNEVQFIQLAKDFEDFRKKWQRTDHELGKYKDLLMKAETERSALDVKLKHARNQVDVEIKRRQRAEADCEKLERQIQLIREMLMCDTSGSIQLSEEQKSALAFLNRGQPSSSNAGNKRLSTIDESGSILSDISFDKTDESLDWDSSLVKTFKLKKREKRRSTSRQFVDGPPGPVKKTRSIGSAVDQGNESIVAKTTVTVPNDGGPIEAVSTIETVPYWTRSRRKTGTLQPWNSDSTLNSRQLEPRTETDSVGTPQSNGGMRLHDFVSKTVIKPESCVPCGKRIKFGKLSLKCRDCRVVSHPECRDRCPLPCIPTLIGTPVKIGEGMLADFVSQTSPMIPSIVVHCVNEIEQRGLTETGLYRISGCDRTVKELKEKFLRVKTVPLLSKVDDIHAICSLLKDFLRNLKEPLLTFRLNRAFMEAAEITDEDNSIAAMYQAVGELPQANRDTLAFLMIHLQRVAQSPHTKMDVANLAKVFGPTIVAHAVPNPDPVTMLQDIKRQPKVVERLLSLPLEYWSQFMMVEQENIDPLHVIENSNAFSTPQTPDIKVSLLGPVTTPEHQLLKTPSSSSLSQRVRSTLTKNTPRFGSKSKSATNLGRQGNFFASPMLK

[3] = intracellular Trypanosoma cruzi inhibitors in host cells – cell-based, plate reader, cherry-pick samples, set 3, dose response (AID 651818); type: functional;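 also: compounds incubated with infected cells for about four days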
[4] = biological target: Glyceraldehyde-3-phosphate dehydrogenase (Homo sapiens, UniProt P04406)
Glyceraldehyde-3-phosphate dehydrogenase, sequence (P04406 whole entry, the tested form may be a part): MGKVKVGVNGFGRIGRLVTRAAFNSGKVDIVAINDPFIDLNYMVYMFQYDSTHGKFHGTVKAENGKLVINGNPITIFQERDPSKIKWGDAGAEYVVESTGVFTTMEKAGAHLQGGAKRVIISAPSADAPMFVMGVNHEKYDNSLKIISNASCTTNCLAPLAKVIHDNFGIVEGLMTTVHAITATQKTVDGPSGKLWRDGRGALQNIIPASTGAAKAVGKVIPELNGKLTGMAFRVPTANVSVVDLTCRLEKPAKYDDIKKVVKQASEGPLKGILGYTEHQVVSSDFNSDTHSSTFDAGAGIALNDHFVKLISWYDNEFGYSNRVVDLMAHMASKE

Fatty acid synthase [5] = biological target: T2, Fatty acid synthase (Homo sapiens, UniProt P49327); assay: FAS thioesterase domain inhibitors, dose response, biochemical, endpoint fluorescence intensity, uHTS hits (AID 624327); type: functional;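 also: fluorescence from hydrolysis of an O-methyl fluorescein acyl ester substrate by the enzyme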
T2 sequence (P49327 whole entry, the tested form may be a part): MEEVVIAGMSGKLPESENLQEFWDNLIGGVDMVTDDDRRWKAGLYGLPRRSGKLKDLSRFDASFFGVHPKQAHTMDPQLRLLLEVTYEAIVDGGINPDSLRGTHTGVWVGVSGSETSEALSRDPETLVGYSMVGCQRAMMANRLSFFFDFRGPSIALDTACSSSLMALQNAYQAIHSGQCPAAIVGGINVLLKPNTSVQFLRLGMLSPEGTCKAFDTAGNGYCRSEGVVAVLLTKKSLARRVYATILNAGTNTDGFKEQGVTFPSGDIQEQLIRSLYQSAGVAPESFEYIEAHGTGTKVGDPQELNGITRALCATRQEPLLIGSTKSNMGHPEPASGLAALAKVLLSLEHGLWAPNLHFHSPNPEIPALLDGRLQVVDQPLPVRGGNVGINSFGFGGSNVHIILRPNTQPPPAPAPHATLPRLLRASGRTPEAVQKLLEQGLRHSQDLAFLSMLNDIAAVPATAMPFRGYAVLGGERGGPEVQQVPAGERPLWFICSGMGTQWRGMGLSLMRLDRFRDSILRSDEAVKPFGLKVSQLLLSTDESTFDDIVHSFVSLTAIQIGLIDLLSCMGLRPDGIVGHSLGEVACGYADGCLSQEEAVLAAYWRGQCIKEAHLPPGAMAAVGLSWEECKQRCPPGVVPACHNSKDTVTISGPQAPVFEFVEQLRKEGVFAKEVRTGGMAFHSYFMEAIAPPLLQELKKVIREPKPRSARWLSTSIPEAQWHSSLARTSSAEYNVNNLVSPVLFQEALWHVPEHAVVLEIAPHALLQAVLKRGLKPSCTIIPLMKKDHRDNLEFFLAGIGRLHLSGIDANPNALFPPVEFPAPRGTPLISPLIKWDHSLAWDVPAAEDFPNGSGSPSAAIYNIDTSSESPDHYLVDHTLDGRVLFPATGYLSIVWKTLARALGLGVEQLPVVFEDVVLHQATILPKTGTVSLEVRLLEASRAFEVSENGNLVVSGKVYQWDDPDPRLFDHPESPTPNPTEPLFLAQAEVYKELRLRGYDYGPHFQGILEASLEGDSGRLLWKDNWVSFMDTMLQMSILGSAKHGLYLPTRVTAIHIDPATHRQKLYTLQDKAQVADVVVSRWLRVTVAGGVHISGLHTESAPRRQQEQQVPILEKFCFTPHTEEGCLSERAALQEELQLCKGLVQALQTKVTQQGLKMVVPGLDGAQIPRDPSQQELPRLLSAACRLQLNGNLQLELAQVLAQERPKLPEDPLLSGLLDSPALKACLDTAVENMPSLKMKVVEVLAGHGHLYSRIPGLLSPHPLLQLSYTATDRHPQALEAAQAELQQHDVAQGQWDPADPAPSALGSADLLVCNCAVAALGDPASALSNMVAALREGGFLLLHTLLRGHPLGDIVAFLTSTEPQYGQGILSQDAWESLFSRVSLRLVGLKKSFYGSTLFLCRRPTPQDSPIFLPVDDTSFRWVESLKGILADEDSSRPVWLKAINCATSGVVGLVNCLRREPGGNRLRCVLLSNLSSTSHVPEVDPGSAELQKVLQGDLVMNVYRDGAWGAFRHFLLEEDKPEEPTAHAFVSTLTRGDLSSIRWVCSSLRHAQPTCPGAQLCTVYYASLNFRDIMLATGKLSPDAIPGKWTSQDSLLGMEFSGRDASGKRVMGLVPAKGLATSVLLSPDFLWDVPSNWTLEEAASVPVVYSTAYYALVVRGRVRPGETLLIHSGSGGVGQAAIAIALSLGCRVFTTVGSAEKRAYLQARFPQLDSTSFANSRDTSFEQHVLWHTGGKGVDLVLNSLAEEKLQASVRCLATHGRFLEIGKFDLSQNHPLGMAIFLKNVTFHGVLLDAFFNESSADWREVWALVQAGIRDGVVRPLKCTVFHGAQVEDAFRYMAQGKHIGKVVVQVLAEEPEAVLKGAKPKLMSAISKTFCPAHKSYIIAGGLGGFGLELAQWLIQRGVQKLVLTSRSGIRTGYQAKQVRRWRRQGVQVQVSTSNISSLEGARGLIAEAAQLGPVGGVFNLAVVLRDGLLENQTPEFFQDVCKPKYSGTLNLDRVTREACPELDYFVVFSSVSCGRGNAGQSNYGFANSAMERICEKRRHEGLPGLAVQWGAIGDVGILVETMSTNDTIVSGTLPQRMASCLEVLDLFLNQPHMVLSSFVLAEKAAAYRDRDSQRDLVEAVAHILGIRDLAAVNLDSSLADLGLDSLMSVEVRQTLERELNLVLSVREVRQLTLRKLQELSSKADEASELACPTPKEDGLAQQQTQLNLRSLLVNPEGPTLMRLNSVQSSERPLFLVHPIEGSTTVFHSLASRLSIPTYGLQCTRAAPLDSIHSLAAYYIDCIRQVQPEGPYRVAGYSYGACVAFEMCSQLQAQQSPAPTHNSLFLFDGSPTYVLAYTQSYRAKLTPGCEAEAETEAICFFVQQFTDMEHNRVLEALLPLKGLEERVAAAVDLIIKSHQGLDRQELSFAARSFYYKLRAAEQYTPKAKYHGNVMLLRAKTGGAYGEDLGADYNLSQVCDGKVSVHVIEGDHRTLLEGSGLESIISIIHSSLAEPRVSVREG

Fatty acid synthase [6] = biological target: T2, Fatty acid synthase; assay: FAS thioesterase domain inhibitors, dose response, biochemical, kinetic fluorescence intensity (AID 624326); type: functional;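 also: rate of fluorescence rise from hydrolysis of a fluorogenic O-methyl fluorescein ester substrate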
[7] = P. falciparum Dd2 growth inhibitors, dose response, SYBR Green, dry powder samples (AID 1159566); type: functional, cell-based;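 also: potency for growth inhibition with lower SYBR green DNA signal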
[8] = P. falciparum ATP4 D1247Y mutant growth inhibitors, dose response, NITD609-resistant line, SYBR Green, dry powder (AID 1159571); type: functional, cell-based;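 also: parasites synchronized at ring stage by sorbitol before testing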
[9] = P. falciparum 3D7-ScDHODH growth inhibitors, dose response, SYBR Green, dry powder samples (AID 1159570); type: functional, cell-based;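 also: parasite growth measured after 72 hours of compound exposure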
[10] = P. falciparum Dd2 growth inhibitors, dose response, SYBR Green, cherry-picked samples (AID 1159567); type: functional, cell-based
Genome polyprotein = Genome polyprotein (dengue virus type 2, UniProt P29990); assay: Dengue-2 NS5 methyltransferase inhibitors, primary screen, biochemical, confirmation dose response (AID 588689); type: functional
Genome polyprotein, sequence (P29990 2492-3391 limits assumed): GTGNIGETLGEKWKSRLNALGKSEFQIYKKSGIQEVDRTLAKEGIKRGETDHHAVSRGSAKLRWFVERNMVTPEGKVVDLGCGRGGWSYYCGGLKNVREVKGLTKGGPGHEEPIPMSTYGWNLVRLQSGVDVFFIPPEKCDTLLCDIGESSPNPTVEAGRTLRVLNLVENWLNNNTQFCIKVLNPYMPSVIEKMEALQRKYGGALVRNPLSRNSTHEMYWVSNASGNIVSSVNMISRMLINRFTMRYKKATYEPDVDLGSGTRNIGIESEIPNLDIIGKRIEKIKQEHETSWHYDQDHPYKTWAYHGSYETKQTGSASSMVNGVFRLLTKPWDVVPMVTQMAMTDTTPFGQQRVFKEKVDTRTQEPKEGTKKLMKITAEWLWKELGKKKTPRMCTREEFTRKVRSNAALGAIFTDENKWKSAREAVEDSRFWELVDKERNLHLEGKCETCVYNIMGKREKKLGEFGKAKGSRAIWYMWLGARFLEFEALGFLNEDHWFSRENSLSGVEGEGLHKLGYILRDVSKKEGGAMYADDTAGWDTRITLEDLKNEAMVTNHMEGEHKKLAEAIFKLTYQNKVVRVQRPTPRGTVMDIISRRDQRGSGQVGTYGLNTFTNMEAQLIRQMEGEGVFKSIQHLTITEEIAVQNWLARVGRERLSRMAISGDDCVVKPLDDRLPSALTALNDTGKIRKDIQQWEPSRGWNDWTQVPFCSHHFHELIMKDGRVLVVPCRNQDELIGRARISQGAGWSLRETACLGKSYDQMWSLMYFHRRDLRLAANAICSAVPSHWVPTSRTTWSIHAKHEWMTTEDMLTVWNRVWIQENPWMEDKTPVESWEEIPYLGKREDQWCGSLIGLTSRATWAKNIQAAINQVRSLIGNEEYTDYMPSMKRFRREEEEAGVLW

[11] = biological target: T3, Replicative DNA helicase DnaB (Mycobacterium tuberculosis, UniProt P9WMR3); assay: DnaB intein splicing inhibitors, dose response, biochemical, cell-free fluorescence (AID 449749); type: functional
T3 sequence (P9WMR3 whole entry): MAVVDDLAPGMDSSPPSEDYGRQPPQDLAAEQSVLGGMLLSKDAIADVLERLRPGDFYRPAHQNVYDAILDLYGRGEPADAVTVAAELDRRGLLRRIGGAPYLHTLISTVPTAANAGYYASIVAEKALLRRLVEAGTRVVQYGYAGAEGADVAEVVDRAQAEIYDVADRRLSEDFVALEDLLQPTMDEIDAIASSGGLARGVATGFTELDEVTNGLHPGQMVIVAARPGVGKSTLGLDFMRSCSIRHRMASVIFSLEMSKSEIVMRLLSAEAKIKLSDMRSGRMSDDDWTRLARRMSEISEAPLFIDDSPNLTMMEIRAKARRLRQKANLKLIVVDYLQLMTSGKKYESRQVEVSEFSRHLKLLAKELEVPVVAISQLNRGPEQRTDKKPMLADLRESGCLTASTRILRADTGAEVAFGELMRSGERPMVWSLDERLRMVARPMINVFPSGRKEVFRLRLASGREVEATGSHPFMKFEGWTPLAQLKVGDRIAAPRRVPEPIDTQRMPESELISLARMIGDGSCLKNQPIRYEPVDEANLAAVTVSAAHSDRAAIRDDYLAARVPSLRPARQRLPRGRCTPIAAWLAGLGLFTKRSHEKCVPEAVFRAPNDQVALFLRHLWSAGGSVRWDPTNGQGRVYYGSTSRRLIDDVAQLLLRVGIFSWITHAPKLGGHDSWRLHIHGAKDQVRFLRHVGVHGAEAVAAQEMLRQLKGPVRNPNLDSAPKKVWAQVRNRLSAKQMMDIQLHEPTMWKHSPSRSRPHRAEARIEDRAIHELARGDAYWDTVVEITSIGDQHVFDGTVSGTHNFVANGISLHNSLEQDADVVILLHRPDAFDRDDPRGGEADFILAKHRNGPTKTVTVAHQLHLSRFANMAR

Protein RecA = biological target: T4, Protein RecA (Mycobacterium tuberculosis, UniProt P9WHJ3); assay: Fluorescence Cell-Free Homogeneous Dose Retest to Identify Inhibitors of RecA-Intein Splicing Activity. [Related pubchem assays (depositor defined):AID2097, AID2223, AID489010, AID492950]; type: functional
T4 sequence (P9WHJ3 whole entry): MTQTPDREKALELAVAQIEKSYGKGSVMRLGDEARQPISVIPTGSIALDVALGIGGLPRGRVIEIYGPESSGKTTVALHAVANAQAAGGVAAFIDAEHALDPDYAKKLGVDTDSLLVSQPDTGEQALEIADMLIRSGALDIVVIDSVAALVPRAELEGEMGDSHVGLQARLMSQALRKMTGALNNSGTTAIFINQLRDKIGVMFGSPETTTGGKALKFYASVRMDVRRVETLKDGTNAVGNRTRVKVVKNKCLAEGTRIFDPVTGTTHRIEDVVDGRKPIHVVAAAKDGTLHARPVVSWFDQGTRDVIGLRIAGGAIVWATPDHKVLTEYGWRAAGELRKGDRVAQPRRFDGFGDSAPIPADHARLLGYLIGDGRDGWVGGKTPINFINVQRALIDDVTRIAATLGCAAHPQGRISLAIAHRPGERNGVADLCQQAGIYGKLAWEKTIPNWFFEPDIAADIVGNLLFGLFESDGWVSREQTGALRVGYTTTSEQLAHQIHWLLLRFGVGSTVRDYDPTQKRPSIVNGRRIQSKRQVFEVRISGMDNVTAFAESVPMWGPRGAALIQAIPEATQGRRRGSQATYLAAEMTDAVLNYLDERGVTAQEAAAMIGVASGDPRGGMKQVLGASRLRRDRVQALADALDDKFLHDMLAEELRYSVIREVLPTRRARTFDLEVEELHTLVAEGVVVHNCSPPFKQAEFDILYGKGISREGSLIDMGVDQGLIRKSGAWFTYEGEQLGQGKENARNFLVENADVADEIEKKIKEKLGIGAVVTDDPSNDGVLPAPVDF

Vero [12] = assay: cells; type: functional, cell-based; conditions: Chlorocebus sabaeus
[13] = biological target: DNA dC->dU-editing enzyme APOBEC-3G (Homo sapiens, UniProt Q9HC16); assay: Dose Response confirmation of small molecule APOBEC3G DNA Deaminase Inhibitors via a fluorescence-based single-stranded DNA deaminase assay. [Related pubchem assays (depositor defined):AID493012, AID493028]; type: functional
DNA dC->dU-editing enzyme APOBEC-3G, sequence (Q9HC16 whole entry): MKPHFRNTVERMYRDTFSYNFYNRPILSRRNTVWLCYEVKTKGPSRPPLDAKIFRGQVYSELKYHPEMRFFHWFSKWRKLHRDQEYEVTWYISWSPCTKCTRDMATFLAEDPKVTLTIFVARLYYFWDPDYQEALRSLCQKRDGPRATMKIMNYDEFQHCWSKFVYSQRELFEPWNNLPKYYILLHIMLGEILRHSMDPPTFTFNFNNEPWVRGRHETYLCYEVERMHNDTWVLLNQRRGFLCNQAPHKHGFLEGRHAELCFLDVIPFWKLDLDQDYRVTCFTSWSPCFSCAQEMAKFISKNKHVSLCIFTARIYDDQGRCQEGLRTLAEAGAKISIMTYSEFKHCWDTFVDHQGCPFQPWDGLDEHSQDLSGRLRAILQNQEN

[14] = cytotoxicity toward NIH3T3 fibroblasts, dose response, counter-screen, cell-based, ATP luminescence, mouse fibroblasts (AID 2010); type: functional;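 also: cells exposed to compound for about 90 hours before reading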
[15] = inhibitors of intracellular T. cruzi replication, confirmation, NIH3T3 host cells, beta-gal luminescence (AID 2044); type: functional, cell-based;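 also: intracellular parasites grown in NIH/3T3 mouse fibroblasts as host cells; luminescent beta-galactosidase reporter signal from transgenic T. cruzi replicating inside host cells; inhibitors lower the luminescence signal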
Vero [16] = assay: cells; type: functional; conditions: Chlorocebus sabaeus

CC1CCCN(CCOc2ccc3ccccc3c2Br)C1 (stereo unspecified)
CC50 [1]: 68.9 µM (active)
IC50 [2]: 142 µM (active)

C[C@@H]1CN([C@H](C)CO)C(=O)Cc2cc(NC(=O)NC3CCCCC3)ccc2O[C@H]1CN(C)Cc1ccc(Oc2ccccc2)cc1
AC50 [3]: 3.58 µM (active)

O=C1C(Cl)=C(N2CCN(Cc3ccccc3)CC2)C(=O)N1c1ccc(Cl)nc1
IC50 [4]: > 50 µM (inconclusive)

CN(C)C=O.O=C(O)c1ccccc1NS(=O)(=O)c1ccc(NN=Cc2ccc(F)cc2)c([N+](=O)[O-])c1
IC50 (Fatty acid synthase [5]): 7.9 µM (active)
IC50 (Fatty acid synthase [6]): 4.43 µM (active)

Cc1ccc(C(=O)O/N=C(\N)Cc2cccs2)cc1[N+](=O)[O-]
IC50 (Fatty acid synthase [5]): 9.57 µM (active)
IC50 (Fatty acid synthase [6]): 8.33 µM (active)

C[C@@H]1CCCCO[C@H](CN(C)C(=O)C2CCCCC2)[C@@H](C)CN([C@H](C)CO)C(=O)c2cc(NC(=O)Nc3ccc(C(F)(F)F)cc3)ccc2O1
AC50 [3]: 6.88 µM (active)

O=C(COC(=O)c1cc([N+](=O)[O-])ccc1Cl)NCCc1ccccc1
IC50 (Fatty acid synthase [5]): 3.93 µM (active)
IC50 (Fatty acid synthase [6]): 5.26 µM (active)

C[C@H]1CN([C@@H](C)CO)C(=O)c2c(c3ccccc3n2C)-c2ccccc2CO[C@@H]1CN(C)C(=O)Nc1ccc(-c2ccccc2)cc1
AC50 [7]: 0.507 µM (active)
AC50 [8]: 0.532 µM (active)
AC50 [9]: 0.787 µM (active)
AC50 [10]: 1.38 µM (active)

Cc1oc2c(c1C(=O)Nc1cccc(C(=O)O)c1)CCCC2
IC50 [4]: > 100 µM (not active)

C[C@H]1CN([C@@H](C)CO)C(=O)c2cc(NS(=O)(=O)c3ccc(F)cc3)ccc2O[C@@H]1CN(C)Cc1ccc(Cl)c(Cl)c1
AC50 [3]: 4.6 µM (active)

O=C(O)CN1C(=O)/C(=C\c2cccc(OCc3ccc(Cl)cc3Cl)c2)SC1=S
IC50 (Genome polyprotein): 36 µM (active)
AC50 [11]: 2.73 µM (active)
EC50 (Protein RecA): 11.1 µM (active)

C[C@H](CO)N1C[C@H](C)[C@H](CN(C)CC2CC2)Oc2ccc(NC(=O)Nc3ccccc3)cc2CC1=O
AC50 [7]: 3.39 µM (active)
AC50 [8]: 4.64 µM (active)
AC50 [9]: 3.81 µM (active)
AC50 [10]: 2.08 µM (active)

Cc1ccc2oc(=O)c3cnn(CC(=O)Nc4ccccc4N4CCN(C)CC4)c3c2c1
IC50 (Vero [12]): 9.16 µM (active)

COc1ccc(S(=O)(=O)Nc2cccc3c2O[C@@H](CN(C)Cc2ccc(C(=O)Nc4ccccc4N)cc2)[C@H](C)CN([C@@H](C)CO)C3=O)cc1
AC50 [3]: 3.61 µM (active)

COc1ccc(-n2c(SCC(=O)C(C)(C)C)nc3c(sc(=S)n3-c3ccccc3)c2=O)c(OC)c1
IC50 [13]: 66.5 µM (active)
EC50 [14]: > 60 µM (not active)
EC50 [15]: 0.714 µM (active)

C[C@@H]1CN([C@@H](C)CO)C(=O)c2cccc(NC(=O)c3nc4ccccc4s3)c2O[C@H]1CN(C)C(=O)NC1CCCCC1
AC50 [7]: 1.08 µM (active)
AC50 [8]: 1.05 µM (active)
AC50 [9]: 0.846 µM (active)
AC50 [10]: 1.37 µM (active)

CCc1c(C(=O)NC2CCCc3ccccc32)[nH]c(C)c1C(C)=O (stereo unspecified)
IC50 (Vero [12]): 9.95 µM (active)
CC50 (Vero [16]): > 25 µM (active)

O=C(CSc1ncnc2c1cnn2-c1ccccc1)NC1CCCC1
IC50 (Fatty acid synthase [5]): 5.94 µM (active)
IC50 (Fatty acid synthase [6]): 5.67 µM (active)

c1ccc2c(c1)Nc1ccncc1S2
CC50 [1]: 100 µM (active)
IC50 [2]: 269 µM (active)

C[C@H](CO)N1C[C@H](C)[C@@H](CN(C)Cc2ccncc2)Oc2c(NC(=O)Nc3ccc(C(F)(F)F)cc3)cccc2C1=O
AC50 [3]: 2.97 µM (active)

O=C(CN(CC(=O)N1CCOCC1)S(=O)(=O)c1ccc(Br)s1)N1CCOCC1
IC50 [13]: 74.3 µM (active)
